{"source": "patent US6348483B1", "about": "“Use of derivatives of methylene-bis-oxazolidine and compositions obtained thereby” (Air Liquide Sante (International), priority 1998, dated 2002)", "type_in_all_cases": "cell-based", "key": {"Asperg. niger": {"system": "Asperg. niger", "experiment": "Serial dilution test according to DGHM (MIC)", "settings": "aqueous 2% by weight strength solution in fully deionized water; unit assumed", "description": "(§1) Solutions of in each case 2% strength by weight in fully deionized water were examined against selected bacteria and/or yeasts and/or fungi and/or algae using the serial dilution test according to DGHM [German Society for Hygiene and Microbiology]. MIC values of the aqueous 2% by weight strength solutions: […]"}, "Alternaria alternata": {"system": "Alternaria alternata", "experiment": "Serial dilution test according to DGHM (MIC)", "settings": "aqueous 2% by weight strength solution in fully deionized water; unit assumed", "description": "as §1"}, "Pseudomonas aeruginosa": {"system": "Pseudomonas aeruginosa", "experiment": "Serial dilution test according to DGHM (MIC)", "settings": "aqueous 2% by weight strength solution in fully deionized water; unit assumed", "description": "as §1"}, "Rhodotorula mucilaginosa": {"system": "Rhodotorula mucilaginosa", "experiment": "Serial dilution test according to DGHM (MIC)", "settings": "aqueous 2% by weight strength solution in fully deionized water; unit assumed", "description": "as §1"}, "Penicillium funiculosum": {"system": "Penicillium funiculosum", "experiment": "Serial dilution test according to DGHM (MIC)", "settings": "aqueous 2% by weight strength solution in fully deionized water; unit assumed", "description": "as §1"}, "E. coli": {"system": "E. coli", "experiment": "Serial dilution test according to DGHM (MIC)", "settings": "aqueous 2% by weight strength solution in fully deionized water; unit assumed", "description": "as §1"}, "Chlorella fusca": {"system": "Chlorella fusca", "experiment": "Serial dilution test according to DGHM (MIC)", "settings": "aqueous 2% by weight strength solution in fully deionized water; unit assumed", "description": "as §1"}, "Cand. albicans": {"system": "Cand. albicans", "experiment": "Serial dilution test according to DGHM (MIC)", "settings": "aqueous 2% by weight strength solution in fully deionized water; unit assumed", "description": "as §1"}, "Fusarium oxysporum": {"system": "Fusarium oxysporum", "experiment": "Serial dilution test according to DGHM (MIC)", "settings": "aqueous 2% by weight strength solution in fully deionized water; unit assumed", "description": "as §1"}, "Chlorella fusca (CF)": {"system": "Chlorella fusca (CF)", "experiment": "Algistatic finish (SM 023) of pure acrylate house paint", "parameters": "key to Surface colonization: −: no growth; +: some growth; ++: moderate growth; +++: strong growth", "procedure": "In separate batches, the test concentrations of the active compounds/products were incorporated into the house paint, and the fungicidal and/or algistatic finish was determined using the stated test methods.\nIncorporation and testing were carried out according to the methods SM 022 and SM 023 below.\nThis laboratory method was employed for determining the resistance of house coatings to colonization by algae. For this method, house coatings on standardized paper are used as test substrate and Chlorella fusca is used as test alga. It is furthermore possible to use pure cultures of other algae species of practical relevance.\nThe experiments were carried out in Petri dishes on agar nutrient media.\n50 g of the material to be finished were, in separate batches, mixed with various concentrations of the algicide to be examined and homogenized for 3-5 min using a basket stirrer.\nPaper carrier materials having the dimensions 90×270 mm (Schleicher & Schüll No. 2589 B/X 24078) were coated with the test material. The paint and/or render samples were coated to a wet-layer thickness of 250 μm by knife coating. […] In the case of renders, the layer thickness depends, as in practice, on the particle size. The coated carrier materials, hereinbelow referred to as test bodies, were subsequently dried in a horizontal position for five days.\n[…] The cross section of the container for the watering in the direction of flow was 1000±500 cm^2.\nFrom the pretreated test bodies, three sample bodies having a diameter of 5 cm were punched out and sterilized in a Co^60 source using at least 10 kGy.\nAseptically, the samples were placed onto the algae nutrient media, and the centre of the sample was inoculated with 5 ml of each algae suspension.\nThe mixture of the algae suspensions was spread on the surface using a Drigalski spatula or an offset sterile glass rod.\nDuring the growth phase at 22±2° C., the coated samples in the Petri dishes were irradiated with light of an intensity of about 1000 Lux (customary fluorescent tubes, type D 67 daylight). A cycle of in each case 12 hours of irradiation and 12 hours of storage in the dark was used.\nThe colonization of the samples by algae was examined and evaluated after two weeks. Evaluation was carried out visually. The evaluation of the samples was based on the following evaluation scale:\nNo growth of algae on the test bodies\nFormation of an inhibitory zone or growth of algae on the nutrient medium up to the edge of the test bodies\nVisible colonization of the test body by algae"}, "[1]": {"settings": "without stress due to 72 hours leaching (so in the source), use concentration 0.5%"}, "[2]": {"settings": "without stress due to 72 hours leaching (so in the source), use concentration 1.0%"}, "[3]": {"settings": "without stress due to 72 hours leaching (so in the source), use concentration 2.0%"}, "[4]": {"settings": "without stress due to leaching, use concentration 0.5%"}, "[5]": {"settings": "without stress due to leaching, use concentration 1.0%"}, "[6]": {"settings": "without stress due to leaching, use concentration 2.0%"}}, "data": [{"smiles": "CC1CN(CN2COC(C)C2)CO1", "note": "(centres unmarked) [Mar 71, 3,3′-methylenebis-(5-methyloxazolidine)]", "values": [{"measurement": "MIC value AN", "setting": "Asperg. niger", "result": 6.25, "unit": "µg/mL"}, {"measurement": "MIC value AL", "setting": "Alternaria alternata", "result": 6.25, "unit": "µg/mL"}, {"measurement": "MIC value PS", "setting": "Pseudomonas aeruginosa", "result": 6.25, "unit": "µg/mL"}, {"measurement": "MIC value RM", "setting": "Rhodotorula mucilaginosa", "result": 3.12, "unit": "µg/mL"}, {"measurement": "MIC value PF", "setting": "Penicillium funiculosum", "result": 1.56, "unit": "µg/mL"}, {"measurement": "MIC value EC", "setting": "E. coli", "result": 6.25, "unit": "µg/mL"}, {"measurement": "MIC value CF", "setting": "Chlorella fusca", "result": 0.39, "unit": "µg/mL"}, {"measurement": "MIC value CA", "setting": "Cand. albicans", "result": "> 6.25", "unit": "µg/mL"}, {"measurement": "MIC value FO", "setting": "Fusarium oxysporum", "result": 1.56, "unit": "µg/mL"}, {"measurement": "Algicidal action (in words)", "setting": "Chlorella fusca (CF); with stress due to leaching", "result": "little algicidal action in practice"}, {"measurement": "Inhibitory zone", "setting": "Chlorella fusca (CF); [1]", "result": 0, "unit": "mm"}, {"measurement": "Surface colonization", "setting": "Chlorella fusca (CF); [1]", "result": "++"}, {"measurement": "Inhibitory zone", "setting": "Chlorella fusca (CF); [2]", "result": 0, "unit": "mm"}, {"measurement": "Surface colonization", "setting": "Chlorella fusca (CF); [2]", "result": "++"}, {"measurement": "Inhibitory zone", "setting": "Chlorella fusca (CF); [3]", "result": 0, "unit": "mm"}, {"measurement": "Surface colonization", "setting": "Chlorella fusca (CF); [3]", "result": "+++"}, {"measurement": "Inhibitory zone", "setting": "Chlorella fusca (CF); [4]", "result": 12, "unit": "mm"}, {"measurement": "Surface colonization", "setting": "Chlorella fusca (CF); [4]", "result": "−"}, {"measurement": "Inhibitory zone", "setting": "Chlorella fusca (CF); [5]", "result": ">18", "unit": "mm"}, {"measurement": "Surface colonization", "setting": "Chlorella fusca (CF); [5]", "result": "−"}, {"measurement": "Inhibitory zone", "setting": "Chlorella fusca (CF); [6]", "result": ">18", "unit": "mm"}, {"measurement": "Surface colonization", "setting": "Chlorella fusca (CF); [6]", "result": "−"}, {"measurement": "Algicidal activity (in words)", "setting": "Chlorella fusca (CF); without stress due to leaching, use concentration from 0.5 to 2% by weight", "result": "good algicidal activity"}]}]}
